Square brackets hold non-standard residues; d marks the D form. Peptide text beside a SMILES is read from it. * marks the point of attachment. Benzoyl(4-OPh) = O=C(c1ccc(Oc2ccccc2)cc1)*; Lys(Et2) = CCN(CC)CCCC[C@H](N)C(=O)O; d(aIle) = CC[C@H](C)[C@@H](N)C(=O)O; Gly(cPent) = N[C@H](C(=O)O)C1CCCC1; Cbz = O=C(OCc1ccccc1)*; NH(propargyl) = C#CCN*; CH2Cl = ClC*; CH2F = FC*
How the values were obtained:
Format in all cases: toxicity, cell-based
[1] = test system: Fibroblast; experiment: Incucyte cell viability with human fibroblast; conditions: 24 h, 10 µM, compound concentration 10 uM
[2] = test system: U2OS; experiment: Incucyte cell viability with U2OS; conditions: human, 24 h, 10 µM, compound concentration 10 uM
[3] = test system: HEK-293T; experiment: Incucyte cell viability with HEK293T; conditions: human, 24 h, 10 µM, compound concentration 10 uM
Also: unitless GR value; below 1 slowed growth and below 0 cell loss.

Structure (SMILES)	Growth Rate ([1]; replicate number 1)	Growth Rate ([1]; replicate number 2)	Growth Rate ([2]; replicate number 1)	Growth Rate ([2]; replicate number 2)	Growth Rate ([3]; replicate number 1)	Growth Rate ([3]; replicate number 2)
Cl.Cl.O=C(O)Cn1nnc(-c2ccc(CN(CCCCOc3ccc(CN4CCCC4)cc3)CCc3ccccc3)cc2)n1	0.66	1	1	0.91	0.53	0.89
Nc1ccccc1NC(=O)c1ccc(CNc2nccc(-c3cccnc3)n2)cc1 [MOCETINOSTAT]	1	-0.28	-0.13	0.28	0.33	0.39
Cn1c(=O)c2c(nc(N3CCNCC3)n2Cc2nnc(-c3ccc(Cl)c(Cl)c3)o2)n(C)c1=O	1	–	1	0.88	0.79	1
CC(=O)N[C@@H](CC(C)C)C(=O)N[C@@H](CCC(=O)O)C(=O)N[C@@H](Cc1cnc[nH]1)C(=O)N[C@@H](CC(=O)O)C(=O)CCl.O=C(O)C(F)(F)F (Ac-LEHD-CH2Cl)	0.44	1	0.62	1	0.35	0.95
COc1cc(Nc2ncc(F)c(Nc3ccc4c(n3)N(COP(=O)([O-])[O-])C(=O)C(C)(C)O4)n2)cc(OC)c1OC.O.O.O.O.O.O.[Na+].[Na+] [FOSTAMATINIB DISODIUM]	0.41	-0.16	-0.2	-0.05	0.05	0.51
Cc1ccc(F)c2cc(C(=O)N[C@@H]3CCC[C@H](N4CC[C@H](N(C)S(C)(=O)=O)C4)C3)[nH]c12	1	–	1	0.67	0.35	0.62
O=C(COc1ccc(-c2oc3cc(O)c(C(=O)O)cc3c2C#Cc2cccc(Cl)c2)cc1)NC1CC1	0.84	-0.06	0.39	0.84	0.87	0.84
COC(=O)CC[C@H](NC(=O)[C@H](Cc1c[nH]c2ccccc12)NC(=O)OCc1ccccc1)C(=O)N[C@@H](Cc1cnc[nH]1)C(=O)N[C@@H](CC(=O)OC)C(=O)CF (Cbz-WE(OMe)HD(OMe)-CH2F)	0.4	1	0.82	0.99	0.94	0.95
CCc1ccccc1NC(=O)CSC(=O)NNC(=O)[C@H](Cc1c[nH]c2ccccc12)NC(=O)OC(C)(C)C	1	–	1	–	0.24	0.54
CC(=O)N[C@@H](Cc1ccc(O)cc1)C(=O)N[C@H](C(=O)N[C@@H](C)C(=O)N[C@@H](CC(=O)O)C(=O)COC(=O)c1c(C)cccc1C)C(C)C	0.47	0.72	1	–	0.9	0.84
CCN(CC)S(=O)(=O)c1cc(Nc2nccc(-c3ccnc(-c4ccc(NC(=O)NC)cc4)c3)n2)ccc1Cl	0.14	-0.71	-0.05	0.12	-0.42	-0.23
C[C@]12O[C@H](C[C@]1(O)CO)n1c3ccccc3c3c4c(c5c6ccccc6n2c5c31)CNC4=O [LESTAURTINIB]	1	–	0.59	0.46	0.16	0.41
COc1cc(O)c2c(c1)/C=C\C[C@H](O)[C@H](O)C(=O)/C=C\C[C@H](C)OC2=O	-0.67	-0.85	-0.54	-0.35	-0.3	-0.25
Cc1cc(C)c(CNC(=O)c2cc(Cl)c3c(c2C)O[C@@](C)([C@H]2CC[C@H](N(C)C)CC2)O3)c(=O)[nH]1 [VALEMETOSTAT]	1	0.46	0.4	0.98	0.77	0.96
CN1CCN(c2ccc3nc(-c4c(N)c5c(F)cccc5[nH]c4=O)[nH]c3c2)CC1 [DOVITINIB]	1	–	-0.35	-0.04	-0.39	-0.2
Nc1ccc(-c2cccs2)cc1NC(=O)c1ccc2nc(N3CCNCC3)ccc2c1	1	–	0.21	0.63	0.92	0.99
Nc1ncnc2c1ncn2[C@@H]1O[C@H](C[C@@H](N)CC[C@H](N)C(=O)O)[C@@H](O)[C@H]1O [SINEFUNGIN]	0.66	-0.28	0.54	1	0.85	0.88
C#CCNC(=O)[C@H](CO)NC(=O)[C@H](CCCCN(CC)CC)NC(=O)[C@H](NC(=O)[C@@H](NC(=O)c1ccc(Oc2ccccc2)cc1)C1CCCC1)[C@@H](C)CC ({Benzoyl(4-OPh)}-[Gly(cPent)][d(aIle)][Lys(Et2)]S-{NH(propargyl)})	1	0.24	1	–	0.58	1

Structure (SMILES)	Growth Rate ([1]; replicate number 1)	Growth Rate ([1]; replicate number 2)	Growth Rate ([2]; replicate number 1)	Growth Rate ([2]; replicate number 2)	Growth Rate ([3]; replicate number 1)	Growth Rate ([3]; replicate number 2)
CNc1ncc2cc(-c3cc(NC(=O)NCCC(C)(C)C)c(F)cc3C)c(C)nc2n1 [LY-3009120]	-0.76	-0.55	-0.28	0.07	0.3	0.63
CC(C)(C)OC(=O)Nc1ccc(-c2cc(C(=O)NCCCCCCC(=O)NO)no2)cc1	1	-0.09	0.28	0.63	0.72	0.67
CNC(=O)c1cc(Nc2ccnc(Nc3ccc(CCNC(=O)OC(C)(C)C)cc3)n2)[nH]n1	1	–	0.07	0.79	0.07	0.24
CCCOc1ccc(CCc2nc3cc(-c4c(C)noc4C)ccc3n2CCN2CCOCC2)cc1	1	0.67	0.57	0.8	0.54	0.57
OC1CN=C2c3ccn([C@@H]4O[C@H]([C@H](O)c5ccc(Cl)cc5)[C@@H](O)[C@H]4O)c3N=CN21 (some centres undefined)	1	-0.38	1	0.79	1	–
CNC(=O)c1ccc(-c2cc3cccc(-c4nn(C5CCOCC5)c5c4CN(C(C)=O)CC5)c3cn2)cn1	1	–	0.12	0.95	0.61	0.57
CCN1C(C)(C)CC(Oc2ccc(C(=O)Nc3ccc(NC(=O)Nc4cc(C(C)(C)C)on4)cc3)nc2)CC1(C)C	0.74	0.78	0.51	0.66	-0.29	0.58
O=C(O)/C(S)=C/c1c[nH]c2ccc(F)cc12	0.7	1	0.49	1	0.73	0.83
COc1nc(Nc2cc(S(C)(=O)=O)ccc2N[C@@H](c2cccc3c2OC(F)(F)O3)c2ncccc2Cl)nc(N2CCNCC2)n1	-0.22	-0.7	-0.91	-0.02	-0.57	-0.39
CCN(c1cc(C#CCN2CCOCC2)cc(C(=O)NCc2c(C)cc(C)[nH]c2=O)c1C)[C@H]1CC[C@H](N(C)CCOC)CC1	1	–	1	0.81	0.57	0.74
Cc1nc(F)ccc1-c1cc(Cn2ccn(C)c2=N)cc(C(=O)NCc2ccc(Cl)c(Cl)c2)c1.O=C(O)C(F)(F)F	0.97	0.38	1	–	0.97	0.95
Cc1ncsc1-c1ccc([C@H](C)NC(=O)[C@@H]2C[C@@H](O)CN2C(=O)[C@@H](NC(=O)CNC(=O)c2ccc(F)c(-c3ccc(N4C[C@@H](C)N(C)[C@@H](C)C4)c(NC(=O)c4c[nH]c(=O)cc4C(F)(F)F)c3)c2)C(C)(C)C)cc1	-0.11	0.89	1	0.89	0.6	0.78
CC(C)C(=O)SCCCCCCC(=O)Nc1nc(-c2ccccc2)cs1	1	-0.31	-0.42	0.02	0.55	–
CNC(=O)N1CCc2c(c(N3CCCc4cc(-c5cnn(C)c5)c(C(F)F)cc43)nn2C2CCOCC2)C1	1	0.36	0.76	1	0.56	0.52
CN(C)Cc1ccc(S(=O)(=O)n2ccc(/C=C/C(=O)NO)c2)cc1.Cl	0.79	-0.05	0.51	-0.17	0.53	0.75
CCC(CC)(NC(=O)C(C)C)C(=O)N[C@@H](CCCNC(=N)N)C(=O)NC1(C(=O)NC(c2ccc(F)cc2)c2ccc(F)cc2)CCCC1	0.56	-0.56	1	0.97	0.95	1
O=C(NCC(=O)N1CCCCC1)Nc1ccc2nnsc2c1	0.36	-0.42	0.93	–	0.75	0.97

Reference: ChEMBL document CHEMBL5724709, “EUbOPEN Chemogenomics Library - IncuCyte” (2024)
